Reference: the supplement of paper PMC11451515

What was measured:
[1] = system: NOMO1; test: AUC of viability dose-response curve (% viability x log10 dose units); higher = less sensitive; settings: 48 h
Outline: (§1)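 Leukemia cells adapted to each medium (500 or 1000 cells/well, 1536-well plates) were exposed to library compounds in DMSO for 48 h at 37°C at 11 threefold doses, 47 μM to 0.79 nM. Luminescence by CellTiter-Glo One was normalised per plate to DMSO and cell-free wells, then fitted with a four-parameter log-logistic curve on log10 dose. Curves above full viability were scaled and quality-control failures removed before area under the curve was integrated by trapezoidal rule.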

[2] = system: P12-Ichikawa; test: as above; settings: 48 h
Outline: as §1

[3] = system: SEM cells; test: as above; settings: 48 h
Outline: as §1

[4] = system: P12-Ichikawa; test: cell viability relative to DMSO control; higher = less cytotoxic; settings: HPLM + 10% dialyzed FBS, 48 h
Outline: (§2)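 Leukemia cells (NOMO1 or SEM, 500 cells/well; P12-Ichikawa, 1000 cells/well) were seeded in 5 μl in 1536-well plates after at least four passages of adaptation to each medium. They received library compounds in DMSO by pin dosing, 11 threefold points from 47 μM to 0.79 nM. Luminescence with CellTiter-Glo One was read after 48 h at 37°C. Viability is stated per plate relative to DMSO wells, with cell-free wells as background.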

[5] = system: SEM cells; test: as above; settings: 48 h
Outline: as §2

CC(C)NCC(O)c1ccc(O)c(O)c1 (centres undefined)
AUC of viability dose-response curve
Settings | [1] | [2] | [3]
HPLM + 10% dialyzed FBS | 376 | 389 | 455
RPMI 5 mM glucose + 10% FBS | 389 | 394 | 427
RPMI 5 mM glucose + 10% dialyzed FBS | 391 | 407 | 457

COC(=O)C1=C(C)NC(C)=C(C(=O)OCCN2CCN(C(c3ccccc3)c3ccccc3)CC2)C1c1cccc([N+](=O)[O-])c1.Cl.Cl (centres undefined)
AUC of viability dose-response curve
Settings | [1] | [2] | [3]
HPLM + 10% dialyzed FBS | 472 | 447 | 463
RPMI 5 mM glucose + 10% FBS | 464 | 464 | 421
RPMI 5 mM glucose + 10% dialyzed FBS | 445 | 442 | 453

CNC(=O)c1ccc(Nc2ncc(C(F)(F)F)c(NCc3nccnc3N(C)[S+](C)(=O)[O-])n2)cc1
Settings | AUC of viability dose-response curve | cell viability [%]
[1], HPLM + 10% dialyzed FBS | 446 | –
[1], RPMI 5 mM glucose + 10% FBS | 412 | –
[1], RPMI 5 mM glucose + 10% dialyzed FBS | 443 | –
[2], HPLM + 10% dialyzed FBS | 457 | –
[2], RPMI 5 mM glucose + 10% FBS | 447 | –
[2], RPMI 5 mM glucose + 10% dialyzed FBS | 438 | –
[3], HPLM + 10% dialyzed FBS | 348 | –
[3], RPMI 5 mM glucose + 10% FBS | 317 | –
[3], RPMI 5 mM glucose + 10% dialyzed FBS | 314 | –
[4], 0.000781 µM | – | 120
[4], 0.00234 µM | – | 127
[4], 0.00702 µM | – | 117
[4], 0.0211 µM | – | 118
[4], 0.0632 µM | – | 124
[4], 0.19 µM | – | 114
[4], 0.569 µM | – | 122
[4], 1.71 µM | – | 125
[4], 5.12 µM | – | 109
[4], 15.4 µM | – | 89.4
[4], 46.1 µM | – | 102

[5], HPLM + 10% dialyzed FBS
Settings | cell viability [%]
0.000781 µM | 115
0.00234 µM | 105
0.00702 µM | 124
0.0211 µM | 127
0.0632 µM | 125
0.19 µM | 113
0.569 µM | 99.8
1.71 µM | 63.2
5.12 µM | 23.5
15.4 µM | 16.7
46.1 µM | 20.9

O=C(NOC[C@H](O)CO)c1ccc(F)c(F)c1Nc1ccc(I)cc1F
AUC of viability dose-response curve
Settings | [1] | [2] | [3]
HPLM + 10% dialyzed FBS | 261 | 434 | 354
RPMI 5 mM glucose + 10% FBS | 274 | 384 | 362
RPMI 5 mM glucose + 10% dialyzed FBS | 260 | 445 | 347

COc1ccc(N(C(=O)Oc2c(C)cccc2C)c2ccnc(Nc3ccc(N4CCN(C)CC4)cc3)n2)c(OC)c1
AUC of viability dose-response curve
Settings | HPLM + 10% dialyzed FBS | RPMI 5 mM glucose + 10% FBS | RPMI 5 mM glucose + 10% dialyzed FBS
[2] | 466 | 457 | 459
[3] | 456 | 455 | 451

COc1cc(C(C)C)c(Oc2cnc(NC(CO)CO)nc2N)cc1I
AUC of viability dose-response curve
Settings | [1] | [2] | [3]
HPLM + 10% dialyzed FBS | 468 | 464 | 458
RPMI 5 mM glucose + 10% FBS | 436 | 466 | 442
RPMI 5 mM glucose + 10% dialyzed FBS | 457 | 452 | 453

NC(=O)c1cccc(-c2cccc(OC(=O)NC3CCCCC3)c2)c1
AUC of viability dose-response curve
Settings | [1] | [2] | [3]
HPLM + 10% dialyzed FBS | 461 | 413 | 421
RPMI 5 mM glucose + 10% FBS | 473 | 402 | 357
RPMI 5 mM glucose + 10% dialyzed FBS | 472 | 380 | 376

cell viability [%], [5]
Settings | HPLM + 10% dialyzed FBS | RPMI 5 mM glucose + 10% FBS
0.000781 µM | 110 | 116
0.00234 µM | 125 | 119
0.00702 µM | 128 | 120
0.0211 µM | 133 | 120
0.0632 µM | 124 | 119
0.19 µM | 38.4 | 33
0.569 µM | 128 | 110
1.71 µM | 96.5 | 78.1
5.12 µM | 94.7 | 62.2
15.4 µM | 104 | 78
46.1 µM | 96.9 | 71.5
